Source: PubChem BioAssay AID588576 (Sanford-Burnham Center for Chemical Genomics, 2011)
Calls of active or inactive are those of the source.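 Rule for the calls: active = an EC50 below a set limit for the caspase 9 and 3 cleavage signal; inactive = the rest.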

Target: Caspase-3 (Homo sapiens) + Caspase-9 (Homo sapiens) (UniProt P42574+P55211)
Experiment: caspase-9/caspase-3 cascade activators, SAR follow-up, selectivity assay for Apaf-1 activator project, biochemical, fluorescence, LZ-caspase-9 mutant (AID 588576)
Conditions: recombinant LZ-caspase-9/procaspase-3, DEVD-Rh110 fluorescence, 55 min

Caspase-3 (Homo sapiens) + Caspase-9 (Homo sapiens), sequence (P42574 whole entry, looked up): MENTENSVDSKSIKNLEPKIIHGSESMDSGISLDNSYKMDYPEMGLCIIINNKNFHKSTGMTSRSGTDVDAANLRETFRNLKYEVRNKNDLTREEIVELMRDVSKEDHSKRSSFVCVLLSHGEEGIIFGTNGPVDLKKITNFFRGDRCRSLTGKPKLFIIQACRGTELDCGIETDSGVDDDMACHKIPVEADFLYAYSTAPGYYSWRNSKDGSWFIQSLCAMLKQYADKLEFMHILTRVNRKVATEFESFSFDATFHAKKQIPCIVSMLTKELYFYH
Caspase-3 (Homo sapiens) + Caspase-9 (Homo sapiens), sequence (P55211 whole entry, looked up): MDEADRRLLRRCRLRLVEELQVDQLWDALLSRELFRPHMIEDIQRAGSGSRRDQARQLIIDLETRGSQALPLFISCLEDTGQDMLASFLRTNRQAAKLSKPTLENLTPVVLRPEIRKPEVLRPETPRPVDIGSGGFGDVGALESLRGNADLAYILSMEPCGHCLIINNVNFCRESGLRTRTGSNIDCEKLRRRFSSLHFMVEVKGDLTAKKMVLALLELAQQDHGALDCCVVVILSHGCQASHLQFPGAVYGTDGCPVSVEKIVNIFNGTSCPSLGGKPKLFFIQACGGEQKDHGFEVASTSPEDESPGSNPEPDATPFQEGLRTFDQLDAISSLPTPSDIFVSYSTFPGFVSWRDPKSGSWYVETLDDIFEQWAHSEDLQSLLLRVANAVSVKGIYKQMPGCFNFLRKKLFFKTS

EC50, inactive:
Cc1cc(C)c(O)c(N2CC(C(=O)O)CC2=O)c1 (configuration not stated) > 100 µM, O=C1CC2(CC(c3c(F)cccc3Cl)=NO2)C(=O)N1c1ccccc1 (configuration not stated) > 100 µM, O=C(Nc1ccc(F)cc1F)C1CC(c2ccc(F)cc2)=NO1 (configuration not stated) > 100 µM, Cc1cc(C)n(C(C)C(C)C(=O)O)n1 (configuration not stated) > 100 µM, Cc1nn(Cc2ccccc2)c(C)c1CCC(=O)O > 100 µM, Cc1cc(NC(=O)C2CC(c3ccc(F)cc3)=NO2)n(-c2ccccc2)n1 (configuration not stated) > 100 µM, O=C(c1ccco1)N1CCN(C(=O)C2CC(c3ccc(F)cc3)=NO2)CC1 (configuration not stated) > 100 µM, O=C(Nc1nc2ccsc2c(=O)s1)C1CCC1 > 100 µM, Cc1cc(C)n(CC(C)C(=O)Nc2ccc(Cl)c(Cl)c2)n1 (configuration not stated) > 100 µM, Cc1nn(CC(C)C(=O)O)c(C)c1Br (configuration not stated) > 100 µM, O=C(Nc1nc2ccsc2c(=O)s1)c1ccco1 > 100 µM, Cc1cc(C)n(C(C)CC(=O)Nc2cccnc2)n1 (configuration not stated) > 100 µM, CC(Cc1c[nH]c2ccccc12)C(=O)O (configuration not stated) > 100 µM, CCOc1ccccc1NC(=O)CCS(=O)(=O)c1ccc2c(c1)OCCO2 > 100 µM, O=C(Nc1nc2ccsc2c(=O)s1)c1cccs1 > 100 µM, O=C(O)C1CC(c2ccc(F)cc2)=NO1 (configuration not stated) > 100 µM, Cc1c(NC(=O)C2CC(c3ccc(F)cc3)=NO2)c(=O)n(-c2ccccc2)n1C (configuration not stated) > 100 µM
